Structures are written as SMILES. The source made the active and inactive calls. The rule behind the calls is not given here.

Experimental findings from PubChem BioAssay AID1745844 (Carcinogenic Potency Database (CPDB), 2022) are described below.

The series concerns rodent lifetime carcinogenesis bioassay, tumor incidence TD50. Briefly: chronic cancer bioassays in animals – CPDB, compiled studies (AID 1745844).

Regarding `COC(=O)C1=C(C)NC(C)=C(C(=O)OCCN2CCN(C(c3ccccc3)c3ccccc3)CC2)C1c1cccc([N+](=O)[O-])c1` (configuration not stated), the TD50 by setting is: (mouse, strain ICR, females, in feed, site: liver, lesion: hepatocellular adenoma, dosed 78 weeks, study length 78 weeks) 545 mg/kg/day (inactive); (mouse, strain ICR, females, in feed, site: lung, lesion: alveolar/bronchiolar adenoma, dosed 78 weeks, study length 78 weeks) 438 mg/kg/day (inactive); (rat, strain Charles River CD (Sprague-Dawley), females, in feed, site: liver, lesion: hepatocellular adenoma, dosed 104 weeks, study length 104 weeks) 157 mg/kg/day (inactive); (rat, strain Charles River CD (Sprague-Dawley), males, in feed, site: liver, lesion: hepatocellular adenoma, dosed 104 weeks, study length 104 weeks) 8240 mg/kg/day (inactive); (rat, strain Charles River CD (Sprague-Dawley), males, in feed, site: liver, lesion: hepatocellular carcinoma, dosed 104 weeks, study length 104 weeks) 405 mg/kg/day (inactive). In addition, the carcinogen call was “negative (inactive)” (mouse, strain ICR, males, in feed, site: liver, lesion: hepatocellular adenoma, dosed 78 weeks, study length 78 weeks); “negative (inactive)” (mouse, strain ICR, males, in feed, site: liver, lesion: hepatocellular carcinoma, dosed 78 weeks, study length 78 weeks); “negative (inactive)” (mouse, strain ICR, males, in feed, site: lung, lesion: alveolar/bronchiolar adenoma, dosed 78 weeks, study length 78 weeks); “negative (inactive)” (rat, strain Charles River CD (Sprague-Dawley), females, in feed, site: liver, lesion: hepatocellular carcinoma, dosed 104 weeks, study length 104 weeks).
Take `CCN(CC(F)(F)F)N=O`: the TD50 by setting is: (rat, strain Sprague-Dawley, males, by gavage, site: esophagus, lesion: papillary carcinoma, dosed 88 weeks, study length 88 weeks) 2.52 mg/kg/day; (rat, strain Sprague-Dawley, males, by gavage, site: nasal cavity, lesion: several types, types named in the paper, dosed 88 weeks, study length 88 weeks) 7.34 mg/kg/day.
As for `CN(C)c1ccc(N=NS(=O)(=O)O)cc1`, the TD50 was 259 mg/kg/day (mouse, strain B6C3F1, females, in feed, site: any site (literature study), lesion: several types, types named in the paper, dosed 78 weeks, study length 95 weeks); 152 mg/kg/day (mouse, strain B6C3F1, females, in feed, site: liver, lesion: hepatocellular adenoma + hepatocellular carcinoma + neoplastic nodule, dosed 78 weeks, study length 95 weeks); 152 mg/kg/day (inactive) (mouse, strain B6C3F1, females, in feed, site: liver, lesion: hepatocellular adenoma + hepatocellular carcinoma, dosed 78 weeks, study length 95 weeks); 1750 mg/kg/day (mouse, strain B6C3F1, females, in feed, site: lung, lesion: alveolar/bronchiolar adenoma + alveolar/bronchiolar carcinoma, dosed 78 weeks, study length 95 weeks). Also, the carcinogen call (mouse, strain B6C3F1, males, in feed, site: any site (literature study), lesion: several types, types named in the paper, dosed 78 weeks, study length 94 weeks) was “negative (inactive)”; the carcinogen call (rat, strain Fischer 344, females, in feed, site: any site (literature study), lesion: several types, types named in the paper, dosed 78 weeks, study length 105 weeks) is “negative (inactive)”; the carcinogen call (rat, strain Fischer 344, males, in feed, site: any site (literature study), lesion: several types, types named in the paper, dosed 78 weeks, study length 105 weeks) is “negative (inactive)”.
With `Nc1nnc(-c2ccc([N+](=O)[O-])o2)s1`, the TD50 was 0.662 mg/kg/day (rat, strain Sprague-Dawley, females, in feed, site: any site (literature study), lesion: several types, types named in the paper, dosed 45 weeks, study length 66 weeks); 23.7 mg/kg/day (rat, strain Sprague-Dawley, females, in feed, site: forestomach, lesion: squamous-cell papilloma, dosed 45 weeks, study length 66 weeks); 73.4 mg/kg/day (rat, strain Sprague-Dawley, females, in feed, site: kidney/pelvis, lesion: transitional-cell carcinoma, dosed 45 weeks, study length 66 weeks); 73.4 mg/kg/day (rat, strain Sprague-Dawley, females, in feed, site: lung, lesion: alveolar-cell carcinoma, dosed 45 weeks, study length 66 weeks); 1.2 mg/kg/day (rat, strain Sprague-Dawley, females, in feed, site: mammary gland, lesion: adenocarcinoma, dosed 45 weeks, study length 66 weeks); 0.662 mg/kg/day (rat, strain Sprague-Dawley, females, in feed, site: mammary gland, lesion: several types, types named in the paper, dosed 45 weeks, study length 66 weeks).
On to `NC(=O)c1cnccn1`, for which the TD50 reads like this: (mouse, strain B6C3F1, females, in feed, site: any site (literature study), lesion: several types, types named in the paper, dosed 78 weeks, study length 104 weeks) 3430 mg/kg/day; (mouse, strain B6C3F1, females, in feed, site: liver, lesion: hepatocellular adenoma + hepatocellular carcinoma + neoplastic nodule, dosed 78 weeks, study length 104 weeks) 10700 mg/kg/day; (mouse, strain B6C3F1, males, in feed, site: any site (literature study), lesion: several types, types named in the paper, dosed 78 weeks, study length 104 weeks) 546 mg/kg/day (inactive); (mouse, strain B6C3F1, males, in feed, site: liver, lesion: hepatocellular adenoma + hepatocellular carcinoma + neoplastic nodule, dosed 78 weeks, study length 104 weeks) 5180 mg/kg/day; (rat, strain Fischer 344, females, in feed, site: any site (literature study), lesion: several types, types named in the paper, dosed 78 weeks, study length 104 weeks) 182 mg/kg/day; (rat, strain Fischer 344, females, in feed, site: pituitary gland, lesion: chromophobe adenoma + chromophobe carcinoma, dosed 78 weeks, study length 104 weeks) 178 mg/kg/day (inactive). The TD50 (rat, strain Fischer 344, males, in feed, site: any site (literature study), lesion: several types, types named in the paper, dosed 78 weeks, study length 104 weeks) is 284 mg/kg/day (inactive).
Turning to `[K+]`, the TD50 by setting is: (rat, strain F344/DuCrj, females, in drinking water, site: submandibular salivary gland, lesion: squamous-cell carcinoma, dosed 104 weeks, study length 104 weeks) 560 mg/kg/day; (rat, strain F344/DuCrj, females, in drinking water, site: uterus, lesion: endometrial stromal polyp, dosed 104 weeks, study length 104 weeks) 204 mg/kg/day (inactive); (rat, strain F344/DuCrj, males, in drinking water, site: submandibular salivary gland, lesion: squamous-cell carcinoma, dosed 104 weeks, study length 104 weeks) 363 mg/kg/day.
Take `ClCc1ccccn1`: the TD50 (mouse, strain B6C3F1, females, by gavage, site: any site (literature study), lesion: several types, types named in the paper, dosed 99 weeks, study length 104 weeks) is 9790 mg/kg/day (inactive); the TD50 (mouse, strain B6C3F1, females, by gavage, site: lung, lesion: alveolar/bronchiolar adenoma + alveolar/bronchiolar carcinoma, dosed 99 weeks, study length 104 weeks) turned out to be 2170 mg/kg/day; the TD50 (mouse, strain B6C3F1, males, by gavage, site: lung, lesion: alveolar/bronchiolar adenoma + alveolar/bronchiolar carcinoma, dosed 99 weeks, study length 104 weeks) was 2940 mg/kg/day; the TD50 (rat, strain Fischer 344, females, by gavage, site: any site (literature study), lesion: several types, types named in the paper, dosed 99 weeks, study length 105 weeks) is 114 mg/kg/day (inactive); the TD50 (rat, strain Fischer 344, males, by gavage, site: any site (literature study), lesion: several types, types named in the paper, dosed 99 weeks, study length 105 weeks) turned out to be 671 mg/kg/day; the TD50 (rat, strain Fischer 344, males, by gavage, site: subcutaneous tissue, lesion: fibroma, dosed 99 weeks, study length 105 weeks) was 515 mg/kg/day (inactive). Further, for the setting “mouse, strain B6C3F1, males, by gavage, site: any site (literature study), lesion: several types, types named in the paper, dosed 99 weeks, study length 104 weeks”, the carcinogen call was “negative (inactive)”.
With `CCC(C)[N+](=O)[O-]` (configuration not stated), the TD50 (rat, strain Fischer 344, males, by gavage, site: liver, lesion: hepatocellular carcinoma, dosed 50 weeks, study length 83 weeks) was 2.86 mg/kg/day.
For the molecule `NC(=O)c1ccccc1C(N)=O`, the carcinogen call is, setting by setting: (mouse, strain B6C3F1, females, in feed, site: any site (literature study), lesion: several types, types named in the paper, dosed 103 weeks, study length 103 weeks) “negative (inactive)”; (rat, strain Fischer 344, males, in feed, site: any site (literature study), lesion: several types, types named in the paper, dosed 106 weeks, study length 106 weeks) “negative (inactive)”. Besides, the TD50 is 1.1e+06 mg/kg/day (inactive) (mouse, strain B6C3F1, males, in feed, site: any site (literature study), lesion: several types, types named in the paper, dosed 105 weeks, study length 105 weeks); 35800 mg/kg/day (mouse, strain B6C3F1, males, in feed, site: lung, lesion: alveolar/bronchiolar adenoma + alveolar/bronchiolar carcinoma, dosed 105 weeks, study length 105 weeks); 722 mg/kg/day (inactive) (rat, strain Fischer 344, females, in feed, site: any site (literature study), lesion: several types, types named in the paper, dosed 106 weeks, study length 106 weeks); 5390 mg/kg/day (rat, strain Fischer 344, females, in feed, site: liver, lesion: hepatocellular adenoma + hepatocellular carcinoma + neoplastic nodule, dosed 106 weeks, study length 106 weeks); 16600 mg/kg/day (rat, strain Fischer 344, males, in feed, site: liver, lesion: hepatocellular adenoma + hepatocellular carcinoma + neoplastic nodule, dosed 106 weeks, study length 106 weeks).
As for `CCCCCCCN`, the carcinogen call (rat, strain Wistar, males, in drinking water, site: any site (literature study), lesion: several types, types named in the paper, dosed 61 weeks, study length 61 weeks) is “negative (inactive)”.
`CCCCCCC(=O)C/C=C/CCCCCCCC(=O)OC`: the TD50 (mouse, strain ST/a, both sexes, in feed, site: all sites, lesion: malignant lymphoma, dosed 42 weeks, study length 84 weeks) is 2940 mg/kg/day (inactive).
Consider `CCCCN(N=O)C(=N)N[N+](=O)[O-]`, for which the carcinogen call (rat, strain Wistar, males, in drinking water, site: stomach, glandular, lesion: one or several types, types not named, dosed 52 weeks, study length 78 weeks) is “negative (inactive)”.
For the molecule `C/C1=C\C=C(\C(C)C)[C@@H](O)C/C(C)=C/CC/C(C)=C/CC1`, the carcinogen call (mouse, strain C3H/HeN, males, in feed, site: liver, lesion: hepatoma, dosed 65 weeks, study length 65 weeks) is “negative (inactive)”.
As for `Cc1cnc(NC(=O)C2=C(O)c3ccccc3S(=O)(=O)N2C)s1`, the carcinogen call is “negative (inactive)” (rat, strain Wistar, females, by gavage, site: stomach, lesion: one or several types, types not named, dosed 52 weeks, study length 52 weeks) and “negative (inactive)” (rat, strain Wistar, males, by gavage, site: stomach, lesion: one or several types, types not named, dosed 52 weeks, study length 52 weeks).
`NC(=S)NNC=O`: for the setting “rat, strain Sprague-Dawley, females, in feed, site: any site (literature study), lesion: several types, types named in the paper, dosed 46 weeks, study length 64 weeks”, the TD50 was 140 mg/kg/day (inactive).
As for `CN=C(N)N`, the TD50 (rat, strain Wistar, males, in feed, site: liver, lesion: hemangioma, dosed 68 weeks, study length 68 weeks) worked out at 84 mg/kg/day.

Usually TD50 stands for the 50% point of the dose-response relation for the toxic effect studied.
